Assay results as given in patent US20240109903A1, “SUBSTITUTED HETEROCYCLES FOR TREATING CANCER” (Northwestern University, priority 2022, published 2024).

Columns and labels:
Type in all cases: cell-based
CCRF-CEM = assay: NCI 60 five-dose screen CCRF-CEM; settings: Homo sapiens
HL-60(TB) = assay: NCI 60 five-dose screen HL-60(TB); settings: Homo sapiens
K-562 = assay: NCI 60 five-dose screen K-562; settings: Homo sapiens
EKVX = assay: NCI 60 five-dose screen EKVX; settings: Homo sapiens
HOP-92 = assay: NCI 60 five-dose screen HOP-92; settings: Homo sapiens
NCI-H522 = assay: NCI 60 five-dose screen NCI-H522; settings: Homo sapiens
HCT-116 = assay: NCI 60 five-dose screen HCT-116; settings: Homo sapiens
HCT-15 = assay: NCI 60 five-dose screen HCT-15; settings: Homo sapiens
HT29 = assay: NCI 60 five-dose screen HT29; settings: Homo sapiens
KM12 = assay: NCI 60 five-dose screen KM12; settings: Homo sapiens
SW-620 = assay: NCI 60 five-dose screen SW-620; settings: Homo sapiens
MALME-3M = assay: NCI 60 five-dose screen MALME-3M; settings: Homo sapiens, Malme-3M
M14 = assay: NCI 60 five-dose screen M14; settings: Homo sapiens
MDA-MB-435 = assay: NCI 60 five-dose screen MDA-MB-435; settings: Homo sapiens
SK-MEL-2 = assay: NCI 60 five-dose screen SK-MEL-2; settings: Homo sapiens
SK-MEL-5 = assay: NCI 60 five-dose screen SK-MEL-5; settings: Homo sapiens
OVCAR-3 = assay: NCI 60 five-dose screen OVCAR-3; settings: Homo sapiens
OVCAR-5 = assay: NCI 60 five-dose screen OVCAR-5; settings: Homo sapiens
NCI/ADR-RES = assay: NCI 60 five-dose screen NCI/ADR-RES; settings: Homo sapiens
A498 = assay: NCI 60 five-dose screen A498; settings: Homo sapiens
ACHN = assay: NCI 60 five-dose screen ACHN; settings: Homo sapiens
CAKI-1 = assay: NCI 60 five-dose screen CAKI-1; settings: Homo sapiens
TK-10 = assay: NCI 60 five-dose screen TK-10; settings: Homo sapiens
PC-3 = assay: NCI 60 five-dose screen PC-3; settings: Homo sapiens
DU-145 = assay: NCI 60 five-dose screen DU-145; settings: Homo sapiens
MCF7 = assay: NCI 60 five-dose screen MCF7; settings: Homo sapiens
HS 578T = assay: NCI 60 five-dose screen HS 578T; settings: Homo sapiens
BT-549 = assay: NCI 60 five-dose screen BT-549; settings: Homo sapiens
[1] = read-out: LC50 (the source's name)
[2] = read-out: LC50 (the source's name) (converted)

Question: Which GI50 (CCRF-CEM) does the source give for `Fc1ccc(N2CC(Cn3c(C(F)(F)F)cc4c(Cl)ncnc43)C2)c(F)c1` [NUCC-0226695] here?
Answer: 10.5 µM

Question: And the IC50 (CCRF-CEM)?
Answer: 41.7 µM

Question: And the IC (TGI) (CCRF-CEM)?
Answer: 100 µM

Question: And the CC50 (CCRF-CEM; [1])?
Answer: ≥ 100 µM

Question: What about the GI50 (HL-60(TB)) of the same compound?
Answer: 2.24 µM

Question: What about the IC50 (HL-60(TB)) of the same compound?
Answer: 3.89 µM

Question: And the IC (TGI) (HL-60(TB))?
Answer: 6.31 µM

Question: And the CC50 (HL-60(TB); [2])?
Answer: ≥ 100 µM

Question: What about the GI50 (K-562; K562) of the same compound?
Answer: 2.34 µM

Question: And the IC50 (K-562; K562)?
Answer: 3.09 µM

Question: What about the IC (TGI) (K-562; K562) of the same compound?
Answer: 7.08 µM

Question: And the CC50 (K-562; K562, read-out: LC50 (the source's name))?
Answer: ≥ 100 µM

Question: And the GI50 (EKVX)?
Answer: 6.61 µM

Question: What about the IC50 (EKVX) of the same compound?
Answer: 16.6 µM

Question: And the IC (TGI) (EKVX)?
Answer: 20 µM

Question: And the CC50 (EKVX; [2])?
Answer: 46.8 µM

Question: And the GI50 (HOP-92)?
Answer: 11 µM

Question: What about the IC50 (HOP-92) of the same compound?
Answer: 26.9 µM

Question: What about the IC (TGI) (HOP-92) of the same compound?
Answer: 25.7 µM

Question: What about the CC50 (HOP-92; [2]) of the same compound?
Answer: 58.9 µM

Question: And the GI50 (NCI-H522)?
Answer: 1.82 µM

Question: What about the IC50 (NCI-H522) of the same compound?
Answer: 3.47 µM

Question: And the IC (TGI) (NCI-H522)?
Answer: 3.98 µM

Question: And the CC50 (NCI-H522; [2])?
Answer: 8.71 µM

Question: What about the GI50 (HCT-116) of the same compound?
Answer: 1.91 µM

Question: And the IC50 (HCT-116)?
Answer: 3.16 µM

Question: What about the IC (TGI) (HCT-116) of the same compound?
Answer: 3.89 µM

Question: And the CC50 (HCT-116; [2])?
Answer: 7.94 µM

Question: What about the GI50 (HCT-15) of the same compound?
Answer: 1.78 µM

Question: What about the IC50 (HCT-15) of the same compound?
Answer: 3.09 µM

Question: And the IC (TGI) (HCT-15)?
Answer: 3.55 µM

Question: And the CC50 (HCT-15; [2])?
Answer: 7.08 µM

Question: What about the GI50 (HT29; HT-29) of the same compound?
Answer: 3.47 µM

Question: What about the IC50 (HT29; HT-29) of the same compound?
Answer: 4.27 µM

Question: And the IC (TGI) (HT29; HT-29)?
Answer: 16.2 µM

Question: And the CC50 (HT29; HT-29, read-out: LC50 (the source's name) (converted))?
Answer: 97.7 µM

Question: What about the GI50 (KM12) of the same compound?
Answer: 16.2 µM

Question: What about the IC50 (KM12) of the same compound?
Answer: 28.2 µM

Question: What about the IC (TGI) (KM12) of the same compound?
Answer: 30.9 µM

Question: What about the CC50 (KM12; [2]) of the same compound?
Answer: 60.3 µM

Question: And the GI50 (SW-620)?
Answer: 1.91 µM

Question: What about the IC50 (SW-620) of the same compound?
Answer: 3.16 µM

Question: And the IC (TGI) (SW-620)?
Answer: 3.8 µM

Question: What about the CC50 (SW-620; [2]) of the same compound?
Answer: 7.76 µM

Question: And the GI50 (MALME-3M)?
Answer: 12.6 µM

Question: What about the IC50 (MALME-3M) of the same compound?
Answer: 25.7 µM

Question: And the IC (TGI) (MALME-3M)?
Answer: 25.1 µM

Question: What about the CC50 (MALME-3M; [2]) of the same compound?
Answer: 50.1 µM

Question: And the GI50 (M14)?
Answer: 2.95 µM

Question: What about the IC50 (M14) of the same compound?
Answer: 4.37 µM

Question: And the IC (TGI) (M14)?
Answer: 10.7 µM

Question: What about the CC50 (M14; [2]) of the same compound?
Answer: 45.7 µM

Question: What about the GI50 (MDA-MB-435) of the same compound?
Answer: 4.9 µM

Question: And the IC50 (MDA-MB-435)?
Answer: 7.59 µM

Question: What about the IC (TGI) (MDA-MB-435) of the same compound?
Answer: 17.8 µM

Question: And the CC50 (MDA-MB-435; [2])?
Answer: 44.7 µM

Question: And the GI50 (SK-MEL-2)?
Answer: 15.8 µM

Question: And the IC50 (SK-MEL-2)?
Answer: 31.6 µM

Question: What about the IC (TGI) (SK-MEL-2) of the same compound?
Answer: 30.9 µM

Question: And the CC50 (SK-MEL-2; [2])?
Answer: 61.7 µM

Question: And the GI50 (SK-MEL-5)?
Answer: 11 µM

Question: What about the IC50 (SK-MEL-5) of the same compound?
Answer: 18.2 µM

Question: What about the IC (TGI) (SK-MEL-5) of the same compound?
Answer: 22.9 µM

Question: And the CC50 (SK-MEL-5; [2])?
Answer: 47.9 µM

Question: And the GI50 (OVCAR-3)?
Answer: 2.57 µM

Question: What about the IC50 (OVCAR-3) of the same compound?
Answer: 4.9 µM

Question: What about the IC (TGI) (OVCAR-3) of the same compound?
Answer: 6.46 µM

Question: What about the CC50 (OVCAR-3; [2]) of the same compound?
Answer: 22.9 µM

Question: And the GI50 (OVCAR-5)?
Answer: 17.8 µM

Question: What about the IC50 (OVCAR-5) of the same compound?
Answer: 32.4 µM

Question: And the IC (TGI) (OVCAR-5)?
Answer: 37.2 µM

Question: What about the CC50 (OVCAR-5; [2]) of the same compound?
Answer: 77.6 µM

Question: What about the GI50 (NCI/ADR-RES) of the same compound?
Answer: 10.2 µM

Question: And the IC50 (NCI/ADR-RES)?
Answer: 18.2 µM

Question: What about the IC (TGI) (NCI/ADR-RES) of the same compound?
Answer: 26.3 µM

Question: What about the CC50 (NCI/ADR-RES; [2]) of the same compound?
Answer: 69.2 µM

Question: What about the GI50 (A498) of the same compound?
Answer: 23.4 µM

Question: And the IC50 (A498)?
Answer: 100 µM

Question: And the IC (TGI) (A498)?
Answer: 74.1 µM

Question: And the CC50 (A498; [2])?
Answer: ≥ 100 µM

Question: And the GI50 (ACHN)?
Answer: 12.9 µM

Question: What about the IC50 (ACHN) of the same compound?
Answer: 21.9 µM

Question: And the IC (TGI) (ACHN)?
Answer: 27.5 µM

Question: And the CC50 (ACHN; [2])?
Answer: 58.9 µM

Question: And the GI50 (CAKI-1)?
Answer: 11.7 µM

Question: And the IC50 (CAKI-1)?
Answer: 20.4 µM

Question: What about the IC (TGI) (CAKI-1) of the same compound?
Answer: 24 µM

Question: What about the CC50 (CAKI-1; [2]) of the same compound?
Answer: 50.1 µM

Question: And the GI50 (TK-10)?
Answer: 19.1 µM

Question: And the IC50 (TK-10)?
Answer: 42.7 µM

Question: What about the IC (TGI) (TK-10) of the same compound?
Answer: 51.3 µM

Question: What about the CC50 (TK-10; [2]) of the same compound?
Answer: ≥ 100 µM

Question: What about the GI50 (PC-3) of the same compound?
Answer: 3.09 µM

Question: What about the IC50 (PC-3) of the same compound?
Answer: 4.27 µM

Question: And the IC (TGI) (PC-3)?
Answer: 11 µM

Question: What about the CC50 (PC-3; [2]) of the same compound?
Answer: 58.9 µM

Question: What about the GI50 (DU-145) of the same compound?
Answer: 12.6 µM

Question: What about the IC50 (DU-145) of the same compound?
Answer: 21.9 µM

Question: And the IC (TGI) (DU-145)?
Answer: 25.7 µM

Question: What about the CC50 (DU-145; [2]) of the same compound?
Answer: 52.5 µM

Question: And the GI50 (MCF7)?
Answer: 8.13 µM

Question: What about the IC50 (MCF7) of the same compound?
Answer: 12.9 µM

Question: And the IC (TGI) (MCF7)?
Answer: 23.4 µM

Question: What about the CC50 (MCF7; [2]) of the same compound?
Answer: 60.3 µM

Question: And the GI50 (HS 578T)?
Answer: 7.08 µM

Question: And the IC50 (HS 578T)?
Answer: 77.6 µM

Question: And the IC (TGI) (HS 578T)?
Answer: 41.7 µM

Question: And the CC50 (HS 578T; [1])?
Answer: ≥ 100 µM

Question: And the GI50 (BT-549)?
Answer: 10.7 µM

Question: And the IC50 (BT-549)?
Answer: 23.4 µM

Question: And the IC (TGI) (BT-549)?
Answer: 22.9 µM

Question: And the CC50 (BT-549; [2])?
Answer: 49 µM
